Laboratory results: patent publication US8653062B2, “Compounds as receptor modulators with therapeutic utility” (Allergan, Inc., priority 2009, dated 2014)

Target: T1, human S1P1 receptor (Homo sapiens, UniProt P21453)
T1 construct: expressed in transfected cells; membranes used
Assay: GTP γ35S binding assay for S1P1 activity
Assay type: biochemical
Conditions: membranes of cells stably expressing S1P1 receptor, 30 min at 25° C.
Description: Compounds were synthesized and tested for S1P1 activity using the GTP γ^35S binding assay. These compounds may be assessed for their ability to activate or block activation of the human S1P1 receptor in cells stably expressing the S1P1 receptor.
GTP γ^35S binding was measured in the medium containing (mM) HEPES 25, pH 7.4, MgCl2 10, NaCl 100, dithitothreitol 0.5, digitonin 0.003%, 0.2 nM GTP γ^35S, and 5 μg membrane protein in a volume of 150 μl. Test compounds were included in the concentration range from 0.08 to 5,000 nM unless indicated otherwise. Membranes were incubated with 100 μM 5′-adenylylimmidodiphosphate for 30 min, and subsequently with 10 μM GDP for 10 min on ice. Drug solutions and membrane were mixed, and then reactions were initiated by adding GTP γ^35S and continued for 30 min at 25° C. Reaction mixtures were filtered over Whatman GF/B filters under vacuum, and washed three times with 3 mL of ice-cold buffer (HEPES 25, pH7.4, MgCl2 10 and NaCl 100). Filters were dried and mixed with scintillant, and counted for ^35S activity using a β-counter. Agonist-induced GTP γ^35S binding was obtained by subtracting that in the absence of agonist. Binding data were analyzed using a non-linear regression method. In case of antagonist assay, the reaction mixture contained 10 nM S1P in the presence of test antagonist at concentrations ranging from 0.08 to 5000 nM.

T1 sequence (P21453 whole entry): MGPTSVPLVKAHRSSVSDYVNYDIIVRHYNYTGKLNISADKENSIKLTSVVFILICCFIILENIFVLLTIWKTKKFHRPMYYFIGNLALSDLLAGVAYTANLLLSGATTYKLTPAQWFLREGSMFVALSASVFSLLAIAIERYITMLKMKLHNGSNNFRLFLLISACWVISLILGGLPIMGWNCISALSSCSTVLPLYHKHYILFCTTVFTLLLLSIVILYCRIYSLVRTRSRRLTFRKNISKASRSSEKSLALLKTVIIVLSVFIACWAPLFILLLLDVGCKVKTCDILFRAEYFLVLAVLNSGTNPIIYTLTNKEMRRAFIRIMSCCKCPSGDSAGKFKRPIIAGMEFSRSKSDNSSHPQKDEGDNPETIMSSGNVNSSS

| EC50 | SMILES |
| --- | --- |
| 13 nM | O=C(O)C1CN(Cc2ccc(OCCCCCc3ccccc3)c(C3=CCCC3)c2)C1 [Compound 15, 1-{3-cyclopent-1-en-1-yl-4-[(5-phenylpentyl)oxy]benzyl}azetidine-3-carboxylic acid] |
| 15 nM | O=C(O)C1CN(Cc2ccc(OCCCCCc3ccccc3)c(-c3cccs3)c2)C1 [Compound 16, 1-{4-[(5-phenylpentyl)oxy]-3-(2-thienyl)benzyl}azetidine-3-carboxylic acid] |
| 22 nM | O=C(O)C1CN(Cc2ccc(OCCCCCc3ccccc3)c(-n3cccn3)c2)C1 [Compound 25, 1-{4-[(5-phenylpentyl)oxy]-3-(1H-pyrazol-1-yl)benzyl}azetidine-3-carboxylic acid] |
| 182 nM | O=C(O)C1CN(Cc2ccc(SCCCCCc3ccccc3)c(-c3cccs3)c2)C1 [Compound 26, 1-{4-[(5-phenylpentyl)thio]-3-(2-thienyl)benzyl}azetidine-3-carboxylic acid] |
| 15 nM | O=C(O)C1CC(NCc2ccc(OCCCCCc3ccccc3)c(-c3cccs3)c2)C1 (stereo not drawn) [Compound 28, 3-({4-[(5-phenylpentyl)oxy]-3-(2-thienyl)benzyl}amino)cyclobutanecarboxylic acid] |

Test system: female C57BL6 mice
Assay: Lymphopenia assay in mice
Assay type: in vivo
Conditions: after 5 hours, 10 mg/Kg subcutaneously, FIG. 1
Description: Test drugs are prepared in a solution containing 3% (w/v) 2-hydroxy propyl β-cyclodextrin (HPBCD) and 1% DMSO to a final concentration of 1 mg/ml, and subcutaneously injected to female C57BL6 mice (CHARLES RIVERS) weighing 20-25 g at the dose of 10 mg/Kg. Blood samples are obtained by puncturing the submandibular skin with a Goldenrod animal lancet at 5, 24, 48, 72, and 96 hrs post drug application. Blood is collected into microvettes (SARSTEDT) containing EDTA tripotassium salt. Lymphocytes in blood samples are counted using a HEMAVET Multispecies Hematology System, HEMAVET HV950FS (Drew Scientific Inc.). (Hale, J. et al Bioorg. & Med. Chem. Lett. 14 (2004) 3351).
A lymphopenia assay in mice; as previously described, was employed to measure the in vivo blood lymphocyte depletion after dosing with 1-{4-[(5-phenylpentyl)oxy]-3-(2-thienyl)benzyl}azetidine-3-carboxylic acid. This S1P1 agonist is useful for S1P-related diseases and exemplified by the lymphopenia in vivo response. […] Lymphocytes in blood samples were counted using a HEMAVET Multispecies Hematology System, HEMAVET HV950FS (Drew Scientific Inc.). […]

| SMILES | lymphocyte count (number of lymphocytes 10^3/μL blood) |
| --- | --- |
| O=C(O)C1CN(Cc2ccc(OCCCCCc3ccccc3)c(-c3cccs3)c2)C1 [Compound 16, 1-{4-[(5-phenylpentyl)oxy]-3-(2-thienyl)benzyl}azetidine-3-carboxylic acid] | < 1 10^3/μL blood |
